# Laboratory results published in patent US8946299B2, “Use of calixarenes associated with an antibiotic in the treatment of bacterial infections” (Universite de Lorraine, priority 2011, dated 2015).
# Values joined by “and” are separate entries in the source; they are usually repeats but may differ in a detail not shown here. Identical values can stand only once.
# Assays:
# [1] = system: EcR1: Penicillinase-Producing Escherichia coli without Associated Resistance; assay: Antibiogram, MIC by the VITEK 2 system; format: cell-based; conditions: Table A1, category from MIC
# Procedure: (§1) 5. Identification and Antibiogram 5.1 EcR1: Penicillinase-Producing Escherichia coli without Associated Resistance
# (§2) The bacterial and antibiogram identification is carried out by the VITEK 2 system (bioMérieux) and by the disk diffusion technique.
# [2] = system: cephalosporinase-hyperproducing strain of Escherichia coli (EcR2); assay: Chessboard technique: MICs alone and synergism of Cx1 combinations; format: cell-based; conditions: n = 4; for Initial MICs (antibiotic): antibiotic used alone, second figure of the cell
# Text: (§3) Three reference strains were used, corresponding to those studied for the MICs and MBCs (Minimum Bactericidal Concentration): Escherichia coli ATCC 25922, Staphylococcus aureus ATCC 29213, Pseudomonas aeruginosa ATCC 27853. For each of these strains 3 corresponding clinical isolates were chosen, having various antibiotic-resistance profiles, routinely used in standard fashion: • EcR1, EcR2, EcR3; • SaR1, SaR3, SaR4; • PaR2, PaR3, PaR5.
# (§4) 1.3. Procedure: Chessboard Technique
# (§5) The bacterial suspension is transferred to a 15 mL Falcon tube, centrifuged for 10 min at 4500 g, then the pellet is re-suspended in 1 mL of sterile distilled water. Suitable dilutions are then prepared in order to obtain a bacterial inoculum between 5·10^5 and 5·10^6 CFU/mL.
# (§6) The MICs of the antibiotics were previously determined for each strain, by the method of microdilution in a liquid medium (CLSI (Clinical and Laboratory Standards Institute), 2003).
# (§7) The same procedure is followed for the Cx1. […] Thus 64 ATB/Cx1 combinations are obtained.
# (§8) The final volume contained in each of the wells must be 100 μL. Two controls must be present on each plate: • column 1 and 12: medium control • column 2 and 11: medium+bacteria control
# (§9) Cx1: […] in the wells of […], starting with the lowest concentration.
# (§10) ATB: 25 μL in the wells of rows H to A (columns 3 to 11), starting with the lowest concentration.
# (§11) 50 μL in each of the wells of columns 2 to 11.
# (§12) D2: Reading the Turbidity at 540 Nm.
# (§13) The FIC (Fractional Inhibitory Concentration Index) value is determined by the following formula:
# (§14) [formula] MICA in combination MICA alone MICB in combination MICB alone
# (§15) When FIC≦0.5, there is a synergistic effect between antibiotic A and antibiotic B.
# (§16) When 0.5<FIC≦1, there is an additive effect between antibiotic A and antibiotic B.
# (§17) When 1<FIC≦4, there is an indifferent effect between antibiotic A and antibiotic B.
# (§18) When FIC>4, there is an antagonistic effect between antibiotic A and antibiotic B.
# (§19) For each strain and each antibiotic/Cx1 combination, the experiments were repeated a minimum of 3 times.
# [3] = system: penicillinase-producing strain of Escherichia coli without associated resistance (EcR1); assay: as above; format: cell-based; conditions: n = 4; for Initial MICs (antibiotic): antibiotic used alone, second figure of the cell
# Text: as §3, §4, §5, §6, §7, §8, §9, §10, §11, §12, §13, §14, §15, §16, §17, §18, §19
# [4] = system: Escherichia coli strain ATCC 25922 (wild type); assay: as above; format: cell-based; conditions: for Initial MICs (antibiotic): antibiotic used alone, second figure of the cell
# Text: as §3, §4, §5, §6, §7, §8, §9, §10, §11, §12, §13, §14, §15, §16, §17, §18, §19
# [5] = system: ESBL-producing strain of Escherichia coli (EcR3); assay: as above; format: cell-based; conditions: n = 4; for Initial MICs (antibiotic): antibiotic used alone, second figure of the cell
# Text: as §3, §4, §5, §6, §7, §8, §9, §10, §11, §12, §13, §14, §15, §16, §17, §18, §19
# [6] = system: EcR1: Penicillinase-Producing Escherichia coli without Associated Resistance; assay: Antibiogram by the disk diffusion technique; format: cell-based; conditions: for Results (diameter): Table A1, category from diameter vs Dmin Dmax; for diameter in mm: Table A2, diameter
# Procedure: as §1, §2
# [7] = system: MRSA strain having a resistance to the aminoglycosides and fluoroquinolones (SaR3); assay: Chessboard technique: MICs alone and synergism of Cx1 combinations; format: cell-based, Staphylococcus aureus; conditions: n = 4; for MIC (antibiotic): antibiotic used alone, second figure of the cell
# Text: as §3, §4, §5, §6, §7, §8, §9, §10, §11, §12, §13, §14, §15, §16, §17, §18, §19
# [8] = system: Escherichia coli, Staphylococcus aureus and Pseudomonas aeruginosa strains; assay: Chessboard technique, summary over all strains and combinations tested; format: cell-based
# Text: as §3, §4
# The FIC (Fractional Inhibitory Concentration Index) value is determined by the following formula: […]
# as §19
# [9] = system: Staphylococcus aureus strain ATCC 29213 (wild type); assay: Chessboard technique: MICs alone and synergism of Cx1 combinations; format: cell-based
# Text: as §3, §4, §5, §6, §7, §8, §9, §10, §11, §12, §13, §14, §15, §16, §17, §18, §19
# [10] = system: MRSA strain having a resistance to the aminoglycosides, fluoroquinolones, macrolides-lincosamides-synergistins and ofloxacin (SaR4); assay: as above; format: cell-based, Staphylococcus aureus; conditions: n = 4
# Text: as §3, §4, §5, §6, §7, §8, §9, §10, §11, §12, §13, §14, §15, §16, §17, §18, §19
# [11] = system: MRSA strain without associated resistance (SaR1); assay: as above; format: cell-based, Staphylococcus aureus; conditions: n = 4
# Text: as §3, §4, §5, §6, §7, §8, §9, §10, §11, §12, §13, §14, §15, §16, §17, §18, §19
# [12] = system: Pseudomonas aeruginosa strain having a resistance to β-lactams (including the carbapenems), aminoglycosides, the trimethoprim-sulphamethoxazole combination and …; assay: as above; format: cell-based; conditions: n = 4
# Text: as §3, §4, §5, §6, §7, §8, §9, §10, §11, §12, §13, §14, §15, §16, §17, §18, §19
# [13] = system: Pseudomonas aeruginosa strain ATCC 27853 (wild type); assay: as above; format: cell-based
# Text: as §3, §4, §5, §6, §7, §8, §9, §10, §11, §12, §13, §14, §15, §16, §17, §18, §19
# [14] = system: mucoid strain of Pseudomonas aeruginosa having a resistance to rifampicin and the trimethoprim-sulphamethoxazole combination (PaR5); assay: as above; format: cell-based; conditions: n = 4
# Text: as §3, §4, §5, §6, §7, §8, §9, §10, §11, §12, §13, §14, §15, §16, §17, §18, §19
# [15] = system: Pseudomonas aeruginosa strain having a resistance to β-lactams, the trimethoprim-sulphamethoxazole combination and fosfomycin (PaR2); format: cell-based; conditions: n = 4
# Text: as §3, §4, §5, §6, §7, §8, §9, §10, §11, §12, §13, §14, §15, §16, §17, §18, §19
# [16] = antibiotic used alone, second figure of the cell, n = 4
# [17] = antibiotic used alone, second figure of the cell
# [18] = Cx1 used alone, first figure of the cell
# [19] = Cx1 used alone, first figure of the cell, n = 4
compound,measurement,setting,value
CCn1cc(C(=O)O)c(=O)c2cc(F)c(N3CCNCC3)cc21 [Norfloxacin],Results (MIC),[1],Susceptible
CCN1CCN(C(=O)N[C@@H](C(=O)N[C@@H]2C(=O)N3[C@@H]2SC(C)(C)[C@@H]3C(=O)O)c2ccccc2)C(=O)C1=O [Piperacillin],Initial MICs (antibiotic),[2],32 mg/L
same,Initial MICs (antibiotic),[3],256 mg/L
same,Initial MICs (antibiotic),[4]; n = 4,2 mg/L
same,Initial MICs (antibiotic),[5],128 mg/L
same,Results (MIC),[1],Susceptible
same,Results (diameter),[6],Intermediate
"CC(=O)OCC1=C(C(=O)O)N2C(=O)[C@@H](NC(=O)Cc3cccs3)[C@H]2SC1 [C1G, Cefalotine]",Results (MIC),[1],Susceptible
same,Results (diameter),[6],Intermediate
C[C@H]1COc2c(N3CCN(C)CC3)c(F)cc3c(=O)c(C(=O)O)cn1c23 [Levofloxacin],MIC (antibiotic),[7],8/8 mg/L
CN(C)c1cc(NC(=O)CNC(C)(C)C)c(O)c2c1C[C@H]1C[C@H]3[C@H](N(C)C)C(O)=C(C(N)=O)C(=O)[C@@]3(O)C(O)=C1C2=O [Tigecycline],nature of the interaction between Cx1 and the antibiotic,[8],synergism
CN(C)c1ccc(O)c2c1C[C@H]1C[C@H]3[C@H](N(C)C)C(O)=C(C(N)=O)C(=O)[C@@]3(O)C(O)=C1C2=O [Minocycline],diameter in mm,[6],20 mm
C[C@H]1[C@H](NC(=O)/C(=N\OC(C)(C)C(=O)O)c2csc(N)n2)C(=O)N1S(=O)(=O)O [Aztreonam],Results (diameter),[6],Susceptible
same,diameter in mm,[6],28 mm
CC(=O)NC[C@H]1CN(c2ccc(N3CCOCC3)c(F)c2)C(=O)O1 [Linezolid],Initials MIC (antibiotic),[9]; [16],2 mg/L
same,MIC (antibiotic),[10]; [17],2 mg/L
same,MIC (antibiotic),[7],2 mg/L
same,MIC (antibiotic),[11]; [17],2 mg/L
CC1(C)S[C@@H]2[C@H](NC(=O)[C@H](C(=O)O)c3ccsc3)C(=O)N2[C@H]1C(=O)O [Ticarcillin],Results (MIC),[1],Resistant
same,Results (diameter),[6],Resistant
CO[C@H]1/C=C/O[C@@]2(C)Oc3c(C)c(O)c4c(O)c(c(/C=N/N5CCN(C)CC5)c(O)c4c3C2=O)NC(=O)/C(C)=C\C=C\[C@H](C)[C@H](O)[C@@H](C)[C@@H](O)[C@@H](C)[C@H](OC(C)=O)[C@@H]1C [Rifampicin],Initial MICs (antibiotic),[2],2/2 mg/L
same,MIC (antibiotic),[12]; [17],32/32 mg/L
same,MIC (antibiotic),[13]; [16],64 mg/L
same,Initial MICs (antibiotic),[3],4 mg/L
same,Initial MICs (antibiotic),[4]; n = 4,4/4 mg/L
same,MIC (antibiotic),[14]; [17],16 mg/L
same,Initial MICs (antibiotic),[5],4 mg/L
same,diameter in mm,[6],16 mm
same,MIC (antibiotic),[15]; [17],64 mg/L
para-guanidinoethylcalix[4]arene [Cx1],Initial MICs (Cx1),[2]; [18],2 mg/L and 2/2 mg/L
same,MIC (Cx1),[12]; [18],32 mg/L and 32/32 mg/L
same,Initial MICs (Cx1),"[13]; Cx1 alone, P. aeruginosa ATCC 27853",32/32 mg/L and 32 mg/L
same,MIC (Cx1),[13]; [19],32 mg/L
same,Initial MICs (Cx1),"[9]; Cx1 alone, S. aureus ATCC 29213",8 mg/L
same,Initials MIC (Cx1),[9]; [19],8 mg/L and 8/8 mg/L
same,Initial MICs (Cx1),[3]; [18],2 mg/L
same,Initial MICs (Cx1),"[4]; Cx1 alone, E. coli ATCC 25922",4 mg/L
same,Initial MICs (Cx1),[4]; [19],4 mg/L and 2 mg/L and 4/4 mg/L
same,MIC (Cx1),[14]; [18],32/32 mg/L and 32 mg/L
same,Initial MICs (Cx1),[5]; [18],2 mg/L and 2/2 mg/L
same,MIC (Cx1),[10]; [18],8 mg/L
same,MIC (Cx1),[7]; [18],8 mg/L and 8/8 mg/L
same,MIC (Cx1),[11]; [18],8 mg/L
same,MIC (Cx1),[15]; [18],32 mg/L
CO/N=C(\C(=O)N[C@@H]1C(=O)N2C(C(=O)[O-])=C(C[N+]3(C)CCCC3)CS[C@H]12)c1csc(N)n1 [Cefepime],Results (diameter),[6],Susceptible
same,diameter in mm,[6],27 mm
